Legend:
[1] = target: T1, Y307C/Q725C/V982C mutant Pgp (Homo sapiens, UniProt P08183, C1074A/C1125A/C1227A/C137A/C431A/C717A/C956A/Q725C/V982C/Y307C); assay: Inhibition of IAAP photo-labeling of Pgp in crude membranes
Procedure: (§1) Then, samples were photocrosslinked with IAAP at 4°C as described in the Materials and Methods section. Mean values from at least three independent experiments are plotted and error bars depict SD.
(§2) High-Five insect cells (Invitrogen, Carlsbad, CA) were infected with recombinant baculovirus carrying the human MDR1 cDNA cysless WT and various mutant Pgps, with a His6-tag at the C-terminus as described previously. Crude membranes were prepared as described previously
(§3) The crude membranes of High-Five insect cells containing 60-80 µg protein per 100 µL in 50 mM MES-Tris buffer (pH 6.8), were incubated for 10 minutes at 37°C in the absence (control) and presence of compound(s) at indicated concentration.

[2] = target: T2, cysless WT Pgp (Homo sapiens, UniProt P08183, C1074A/C1125A/C1227A/C137A/C431A/C717A/C956A); assay: as above
Procedure: as §1, §2, §3

[3] = target: cysless WT Pgp (human MDR1) (Homo sapiens, UniProt P08183, C1074A/C1125A/C1227A/C137A/C431A/C717A/C956A); assay: as above; conditions: human, pH 6.8
Procedure: as §1, §2, §3

[4] = target: F343C/V982C mutant Pgp (Homo sapiens, UniProt P08183, C1074A/C1125A/C1227A/C137A/C431A/C717A/C956A/F343C/V982C); assay: Vanadate-sensitive ATP hydrolysis of Pgp in crude membranes; conditions: Verapamil 50 µM, QZ59-SSS 1 µM, Valinomycin 10 µM, FSBA 1 mM
Procedure: (§4) Vanadate-sensitive Pgp-mediated ATP hydrolysis was measured as described in Materials and Methods. […] At least two independent experiments were carried out for each mutant with indicated compounds. Additional information including standard deviations, fold-stimulation or % inhibition, and number of experiments is given in the section (Tables S2 and S3).
as §2
(§5) Crude membranes (10-25 µg protein/100 µ L) from High Five insect cells expressing cysless WT or mutant Pgp were incubated in the presence and absence of sodium orthovanadate (0.3 mM), in a buffer containing 50 mM MES-Tris pH 6.8, 50 mM KCl, 5 mM NaN3, 1 mM EGTA, 1 mM ouabain, 2 mM DTT, and 10 mM MgCl2. […] The reaction was initiated by addition of 5 mM ATP and continued for 20 min at 37°C. […] The reaction was stopped by addition of 100 µ L of 5% SDS and the amount of inorganic phosphate generated was quantified with a colorimetric reaction, as previously described.

[5] = target: F728C mutant Pgp (Homo sapiens, UniProt P08183, C1074A/C1125A/C1227A/C137A/C431A/C717A/C956A/F728C); assay: as above; conditions: Verapamil 50 µM, QZ59-SSS 1 µM, Valinomycin 10 µM, FSBA 1 mM
Procedure: as §4, §2, §5

[6] = target: F728C/V982C mutant Pgp (Homo sapiens, UniProt P08183, C1074A/C1125A/C1227A/C137A/C431A/C717A/C956A/F728C/V982C); assay: as above; conditions: Verapamil 50 µM, QZ59-SSS 1 µM, Valinomycin 10 µM, FSBA 1 mM
Procedure: as §4, §2, §5

[7] = target: T3, F978C mutant Pgp (Homo sapiens, UniProt P08183, C1074A/C1125A/C1227A/C137A/C431A/C717A/C956A/F978C); assay: as above; conditions: Verapamil 50 µM, QZ59-SSS 1 µM, Valinomycin 10 µM
Procedure: as §4, §2, §5

[8] = target: Q725A mutant Pgp (Homo sapiens, UniProt P08183, C1074A/C1125A/C1227A/C137A/C431A/C717A/C956A/Q725A); assay: as above; conditions: Verapamil 50 µM, QZ59-SSS 1 µM, Valinomycin 10 µM
Procedure: as §4, §2, §5

[9] = target: Q725C mutant Pgp (Homo sapiens, UniProt P08183, C1074A/C1125A/C1227A/C137A/C431A/C717A/C956A/Q725C); assay: as above; conditions: Verapamil 50 µM, QZ59-SSS 1 µM, Valinomycin 10 µM, FSBA 1 mM
Procedure: as §4, §2, §5

[10] = target: Q725C/V982C mutant Pgp (Homo sapiens, UniProt P08183, C1074A/C1125A/C1227A/C137A/C431A/C717A/C956A/Q725C/V982C); assay: as above; conditions: Verapamil 50 µM, QZ59-SSS 1 µM, Valinomycin 10 µM, FSBA 1 mM
Procedure: as §4, §2, §5

[11] = target: T4, V982C mutant Pgp (Homo sapiens, UniProt P08183, C1074A/C1125A/C1227A/C137A/C431A/C717A/C956A/V982C); assay: as above; conditions: Verapamil 50 µM, QZ59-SSS 1 µM, Valinomycin 10 µM, FSBA 1 mM
Procedure: as §4, §2, §5

[12] = target: Y307C mutant Pgp (Homo sapiens, UniProt P08183, C1074A/C1125A/C1227A/C137A/C431A/C717A/C956A/Y307C); assay: as above; conditions: Verapamil 50 µM, QZ59-SSS 1 µM, Valinomycin 10 µM, FSBA 1 mM
Procedure: as §4, §2, §5

[13] = target: T1, Y307C/Q725C/V982C mutant Pgp; assay: as above; conditions: Verapamil 50 µM, QZ59-SSS 1 µM, Valinomycin 10 µM, FSBA 1 mM
Procedure: as §4, §2, §5

[14] = target: Y307C/V982C mutant Pgp (Homo sapiens, UniProt P08183, C1074A/C1125A/C1227A/C137A/C431A/C717A/C956A/V982C/Y307C); assay: as above; conditions: Verapamil 50 µM, QZ59-SSS 1 µM, Valinomycin 10 µM, FSBA 1 mM
Procedure: as §4, §2, §5

[15] = target: T2, cysless WT Pgp; assay: as above; conditions: Verapamil 50 µM, QZ59-SSS 1 µM, Valinomycin 10 µM, FSBA 1 mM
Procedure: as §4, §2, §5

[16] = target: F728C mutant Pgp (human MDR1) (Homo sapiens, UniProt P08183, C1074A/C1125A/C1227A/C137A/C431A/C717A/C956A/F728C); assay: in vitro; conditions: pH 6.8
Procedure: as §1, §2, §3

[17] = target: T3, F978C mutant Pgp; assay: biochemical
Procedure: as §1, §2, §3

[18] = target: F978C mutant Pgp (human MDR1) (Homo sapiens, UniProt P08183, C1074A/C1125A/C1227A/C137A/C431A/C717A/C956A/F978C); assay: in vitro; conditions: human, pH 6.8
Procedure: as §1, §2, §3

[19] = target: Q725C mutant Pgp (human MDR1) (Homo sapiens, UniProt P08183, C1074A/C1125A/C1227A/C137A/C431A/C717A/C956A/Q725C); assay: in vitro; conditions: pH 6.8
Procedure: as §1, §2, §3

[20] = target: Q725C/V982C mutant Pgp (human MDR1) (Homo sapiens, UniProt P08183, C1074A/C1125A/C1227A/C137A/C431A/C717A/C956A/Q725C/V982C); assay: in vitro; conditions: pH 6.8
Procedure: as §1, §2, §3

[21] = target: T4, V982C mutant Pgp; assay: biochemical
Procedure: as §1, §2, §3

[22] = target: V982C mutant Pgp (human MDR1) (Homo sapiens, UniProt P08183, C1074A/C1125A/C1227A/C137A/C431A/C717A/C956A/V982C); assay: in vitro; conditions: human, pH 6.8
Procedure: as §1, §2, §3

[23] = target: Y307C/Q725C/V982C mutant Pgp (human MDR1) (Homo sapiens, UniProt P08183, C1074A/C1125A/C1227A/C137A/C431A/C717A/C956A/Q725C/V982C/Y307C); assay: in vitro; conditions: human, pH 6.8
Procedure: as §1, §2, §3

[24] = tested on: all mutant Pgps; assay: Vanadate-sensitive ATP hydrolysis of Pgp in crude membranes; assay type: biochemical, human; conditions: all mutant Pgps; inhibition measured in presence of verapamil 5 µM
Procedure: Crude membranes were prepared as described previously

`CC(C)[C@@H]1NC(=O)[C@H](C)OC(=O)[C@@H](C(C)C)NC(=O)[C@@H](C(C)C)OC(=O)[C@H](C(C)C)NC(=O)[C@H](C)OC(=O)[C@@H](C(C)C)NC(=O)[C@@H](C(C)C)OC(=O)[C@H](C(C)C)NC(=O)[C@H](C)OC(=O)[C@@H](C(C)C)NC(=O)[C@@H](C(C)C)OC1=O` [valinomycin] was tested, and the “Ability to inhibit IAAP photo-labeling” value ([1]; Y307C/Q725C/V982C) was “lose almost completely this ability”, the IC50 [2] was 0.6 µM and the inhibition at 10 min [3] was 82%. The “ATP hydrolysis, Average” value [4] was 56 nmoles Pi/min/mg protein, the “ATP hydrolysis, Fold-stimulation” value ([4]; relative to basal) was 3.1 and the “ATP hydrolysis, Average” value [5] was 23 nmoles Pi/min/mg protein. For the same molecule, the “ATP hydrolysis, Fold-stimulation” value ([5]; relative to basal) was 3.9, the “ATP hydrolysis, Average” value [6] was 10 nmoles Pi/min/mg protein and the “ATP hydrolysis, Fold-stimulation” value ([6]; relative to basal) was 2.5. For the same molecule, the “ATP hydrolysis, Average” value [7] was 18 nmoles Pi/min/mg protein, the “ATP hydrolysis, Fold-stimulation” value ([7]; relative to basal) was 1.5 and the “ATP hydrolysis, Average” value [8] was 11 nmoles Pi/min/mg protein. The “ATP hydrolysis, Fold-stimulation” value ([8]; relative to basal) was 2.1, the “ATP hydrolysis, Average” value [9] was 12 nmoles Pi/min/mg protein and the “ATP hydrolysis, Fold-stimulation” value ([9]; relative to basal) was 2.5. The “ATP hydrolysis, Average” value [10] was 5 nmoles Pi/min/mg protein, the “ATP hydrolysis, Average” value [11] was 13 nmoles Pi/min/mg protein and the “ATP hydrolysis, Average” value [12] was 17 nmoles Pi/min/mg protein. The “ATP hydrolysis, Fold-stimulation” value ([12]; relative to basal) was 2.2, the “ATP hydrolysis, Average” value [13] was 14 nmoles Pi/min/mg protein and the “ATP hydrolysis, Fold-stimulation” value ([13]; relative to basal) was 2.8. The “ATP hydrolysis, Average” value [14] was 33 nmoles Pi/min/mg protein, the “ATP hydrolysis, Fold-stimulation” value ([14]; relative to basal) was 3.5 and the “ATP hydrolysis, Average” value [15] was 40 nmoles Pi/min/mg protein. The “ATP hydrolysis, Fold-stimulation” value ([15]; relative to basal) was 1.9.

Molecule `COc1cc2c(cc1OC)CN(CCc1ccc(NC(=O)c3cc(OC)c(OC)cc3NC(=O)c3cnc4ccccc4c3)cc1)CC2` [Tariquidar, tariquidar] has an inhibition at 10 min [16] of 40%, an IC50 [17] of 3.6 µM and an inhibition at 10 min [18] of 73%. The inhibition at 10 min [19] was 37%, the inhibition at 10 min [20] was 22% and the IC50 [21] was 0.7 µM. The inhibition at 10 min [22] was 64%, the “Ability to inhibit IAAP photo-labeling” value [1] was “lose almost completely this ability” and the inhibition at 10 min [23] was 23%. The IC50 [2] was 0.14 ± 0.03 µM, the inhibition at 10 min [3] was 97 ± 4% and the “Modulation of ATP hydrolysis” value [24] was “found to be inhibited”.

Source: paper PMC3857843, “Multiple Transport-Active Binding Sites Are Available for a Single Substrate on Human P-Glycoprotein (ABCB1)” (PLoS ONE, 2013)
